Assay results taken from ChEMBL document CHEMBL3045778, “Production of bacillomycin- and macrolactin-type antibiotics by Bacillus amyloliquefaciens NJN-6 for suppressing soilborne plant pathogens” (2012).

Key:
Ralstonia solanacearum = assay: Antibacterial activity against Ralstonia solanacearum race 1 assessed as growth inhibition at 50 uL at 28 degC for 3 days; format: functional
[1] = tested on: Fusarium oxysporum f. sp. cubense; assay: Antifungal activity against soil-borne Fusarium oxysporum f. sp. cubense race 4 assessed as growth inhibition at 50 uL at 28 degC for 4 days; format: functional

Structure (SMILES) | diameter of the inhibition zone (DIZ) (Ralstonia solanacearum) [cm] | diameter of the inhibition zone (DIZ) [1] [cm]
C[C@@H]1CCC/C=C/C=C/[C@H](O)C[C@@H](O)C/C=C\C=C\[C@@H](OC(=O)CC(=O)O)C/C=C/C=C\C(=O)O1 [7-O-MALONYL MACROLACTIN A] | 1 | 
C[C@@H]1CCC/C=C/C=C/[C@H](O)C[C@@H](O)C/C=C\C=C\[C@@H](OC(=O)CCC(=O)O)C/C=C/C=C\C(=O)O1 [7-O-SUCCINYL MACROLACTIN A] | 1.3 | 
CC(C)CCCCCCCCC1CC(=O)N[C@@H](CC(=O)O)C(=O)N[C@H](Cc2ccc(O)cc2)C(=O)N[C@H](CC(N)=O)C(=O)N2CCC[C@H]2C(=O)N[C@@H](CCC(=O)O)C(=O)N[C@H](CO)C(=O)N[C@@H]([C@@H](C)O)C(=O)N1 (stereo not given in full) [BACILLOMYCIN D(C14)] |  | 0.6
CCC(C)CCCCCCCCC1CC(=O)N[C@@H](CC(=O)O)C(=O)N[C@H](Cc2ccc(O)cc2)C(=O)N[C@H](CC(N)=O)C(=O)N2CCC[C@H]2C(=O)N[C@@H](CCC(=O)O)C(=O)N[C@H](CO)C(=O)N[C@@H]([C@@H](C)O)C(=O)N1 (stereo not given in full) [BACILLOMYCIN D(C15)] |  | 0.7
C[C@@H]1CCC/C=C/C=C/[C@H](O)C[C@@H](O)C/C=C\C=C\[C@@H](O)C/C=C/C=C\C(=O)O1 [MACROLACTIN A] | 1.2 | 
